Assay results reported in ChEMBL document CHEMBL2163333, “Novel imidazol-1-ylmethyl substituted 1,2,5,6-tetrahydropyrrolo[3,2,1-ij]quinolin-4-ones as potent and selective CYP11B1 inhibitors for the treatment of Cushing's syndrome” (J Med Chem, 2012).

Legend:
Homo sapiens [1] = organism: Homo sapiens; experiment: Selectivity ratio of IC50 for human CYP11B2 to IC50 for human CYP11B1
[2] = biological target: T1, Cytochrome P450 11B1, mitochondrial (Homo sapiens, UniProt P15538); experiment: Inhibition of human CYP11B1 expressed in hamster V79 MZh cells using deoxycorticosterone substrate; format: cell-based
T1 sequence (P15538 whole entry): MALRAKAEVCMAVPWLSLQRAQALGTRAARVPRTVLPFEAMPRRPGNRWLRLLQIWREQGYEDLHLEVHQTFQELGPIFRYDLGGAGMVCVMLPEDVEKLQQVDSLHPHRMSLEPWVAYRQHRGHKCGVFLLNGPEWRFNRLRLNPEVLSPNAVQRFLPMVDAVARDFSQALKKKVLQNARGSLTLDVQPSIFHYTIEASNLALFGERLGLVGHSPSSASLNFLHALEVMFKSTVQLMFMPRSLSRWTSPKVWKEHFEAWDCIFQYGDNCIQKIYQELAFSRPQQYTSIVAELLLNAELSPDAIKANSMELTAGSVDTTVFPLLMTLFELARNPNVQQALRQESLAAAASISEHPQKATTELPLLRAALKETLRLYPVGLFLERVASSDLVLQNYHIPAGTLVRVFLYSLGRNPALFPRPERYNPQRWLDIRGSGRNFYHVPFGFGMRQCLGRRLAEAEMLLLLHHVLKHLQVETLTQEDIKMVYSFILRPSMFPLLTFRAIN

[3] = biological target: T2, Cytochrome P450 11B2, mitochondrial (Homo sapiens, UniProt P19099); experiment: Inhibition of human CYP11B2 expressed in hamster V79 MZh cells using deoxycorticosterone substrate; format: cell-based
T2 sequence (P19099 whole entry): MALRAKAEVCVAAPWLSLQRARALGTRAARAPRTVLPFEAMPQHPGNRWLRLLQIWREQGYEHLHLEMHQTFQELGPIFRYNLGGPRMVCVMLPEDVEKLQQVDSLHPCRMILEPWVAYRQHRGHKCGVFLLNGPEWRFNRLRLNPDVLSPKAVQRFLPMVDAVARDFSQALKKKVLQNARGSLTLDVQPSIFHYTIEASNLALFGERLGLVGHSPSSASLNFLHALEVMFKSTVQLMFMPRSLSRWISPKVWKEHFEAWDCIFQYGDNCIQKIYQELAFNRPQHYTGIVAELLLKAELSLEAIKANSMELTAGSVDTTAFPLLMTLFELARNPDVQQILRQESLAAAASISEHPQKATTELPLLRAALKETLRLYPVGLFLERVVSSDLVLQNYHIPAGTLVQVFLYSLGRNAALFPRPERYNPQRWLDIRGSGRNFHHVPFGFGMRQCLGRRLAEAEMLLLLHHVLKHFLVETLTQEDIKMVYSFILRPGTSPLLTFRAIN

Aromatase = biological target: T3, Aromatase (Homo sapiens, UniProt P11511); experiment: Inhibition of human placental CYP19 using androstenedione substrate
T3 sequence (P11511 whole entry): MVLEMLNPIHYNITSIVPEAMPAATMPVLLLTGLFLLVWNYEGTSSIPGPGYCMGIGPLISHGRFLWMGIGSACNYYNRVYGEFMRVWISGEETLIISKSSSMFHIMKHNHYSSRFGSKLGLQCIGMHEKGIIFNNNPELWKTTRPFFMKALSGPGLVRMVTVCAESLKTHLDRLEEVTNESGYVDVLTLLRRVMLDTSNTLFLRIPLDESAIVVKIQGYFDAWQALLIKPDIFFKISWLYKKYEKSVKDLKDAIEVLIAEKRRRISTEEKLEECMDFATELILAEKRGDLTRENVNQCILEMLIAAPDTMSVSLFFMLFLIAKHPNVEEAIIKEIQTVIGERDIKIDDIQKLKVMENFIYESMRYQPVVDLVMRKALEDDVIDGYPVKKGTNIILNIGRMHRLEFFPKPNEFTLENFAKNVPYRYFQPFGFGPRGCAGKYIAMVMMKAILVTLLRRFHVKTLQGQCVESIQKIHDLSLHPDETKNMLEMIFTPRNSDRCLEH

Homo sapiens [4] = organism: Homo sapiens; experiment: Selectivity ratio of IC50 for human placental CYP19 to IC50 for human CYP11B1
Homo sapiens [5] = organism: Homo sapiens; experiment: Selectivity ratio of IC50 for human CYP17 to IC50 for human CYP11B1
[6] = biological target: T4, Steroid 17-alpha-hydroxylase/17,20 lyase (Homo sapiens, UniProt P05093); experiment: Inhibition of human CYP17 expressed in Escherichia coli using progesterone substrate
T4 sequence (P05093 whole entry): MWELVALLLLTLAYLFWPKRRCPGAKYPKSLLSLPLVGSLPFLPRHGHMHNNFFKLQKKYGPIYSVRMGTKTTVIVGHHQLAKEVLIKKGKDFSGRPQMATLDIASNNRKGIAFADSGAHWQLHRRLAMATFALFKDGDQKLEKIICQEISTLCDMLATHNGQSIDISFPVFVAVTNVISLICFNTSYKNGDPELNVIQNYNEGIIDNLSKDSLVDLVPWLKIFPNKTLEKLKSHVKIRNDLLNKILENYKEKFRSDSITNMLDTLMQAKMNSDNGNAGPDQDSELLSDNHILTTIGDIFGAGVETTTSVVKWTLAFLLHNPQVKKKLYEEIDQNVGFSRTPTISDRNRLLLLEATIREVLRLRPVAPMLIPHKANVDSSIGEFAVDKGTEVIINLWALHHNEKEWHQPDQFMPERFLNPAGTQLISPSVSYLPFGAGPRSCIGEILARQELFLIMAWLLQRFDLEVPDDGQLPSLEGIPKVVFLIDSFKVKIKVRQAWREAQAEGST

[7] = biological target: T5, Cytochrome P450 11B1, mitochondrial (Rattus norvegicus, UniProt P15393); experiment: Inhibition of rat CYP11B1 at 2 uM
T5 sequence (P15393 whole entry): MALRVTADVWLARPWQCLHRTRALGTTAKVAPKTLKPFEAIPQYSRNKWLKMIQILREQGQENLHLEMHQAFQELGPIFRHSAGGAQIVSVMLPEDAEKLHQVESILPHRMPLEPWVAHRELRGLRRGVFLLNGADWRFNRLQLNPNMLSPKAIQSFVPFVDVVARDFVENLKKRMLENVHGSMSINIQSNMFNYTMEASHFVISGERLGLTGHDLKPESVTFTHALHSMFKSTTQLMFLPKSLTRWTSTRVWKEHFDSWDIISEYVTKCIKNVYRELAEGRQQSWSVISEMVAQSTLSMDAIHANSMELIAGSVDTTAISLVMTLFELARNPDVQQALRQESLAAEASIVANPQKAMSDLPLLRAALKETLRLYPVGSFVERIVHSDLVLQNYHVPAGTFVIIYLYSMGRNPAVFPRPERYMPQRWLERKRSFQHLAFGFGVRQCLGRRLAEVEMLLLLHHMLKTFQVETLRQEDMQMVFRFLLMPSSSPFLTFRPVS

| SMILES | Ratio IC50 (Homo sapiens [1]) | IC50 [2] [nM] | IC50 [3] [nM] | IC50 (Aromatase) [nM] | Ratio IC50 (Homo sapiens [4]) | Ratio IC50 (Homo sapiens [5]) | IC50 [6] [nM] | inhibition at 2 µM [7] [%] |
| --- | --- | --- | --- | --- | --- | --- | --- | --- |
| O=C1CCc2cc(C(c3ccco3)n3ccnc3)cc3c2N1CC3 (configuration not stated) | 2.4 | 20 | 47 |  |  |  |  |  |
| CC(C)C(c1cc2c3c(c1)CCN3C(=O)CC2)n1ccnc1 (configuration not stated) | 2.7 | 1.4 | 3.8 | > 500 | > 357 | 1110 | 1550 |  |
| O=C1CCc2cc(C(c3cccs3)n3ccnc3)cc3c2N1CC3 (configuration not stated) | 1.4 | 13 | 18 |  |  |  |  |  |
| N#Cc1cccc(C(c2cc3c4c(c2)CCN4C(=O)CC3)n2ccnc2)c1 (configuration not stated) | 2.1 | 144 | 304 |  |  |  |  |  |
| O=C1CCc2cc(C(c3ccccc3)n3ccnc3)cc3c2N1CC3 (configuration not stated) | 0.7 | 50 | 33 |  |  |  |  |  |
| O=C1CCc2cc(C(c3ccccc3F)n3ccnc3)cc3c2N1CC3 (configuration not stated) | 0.5 | 40 | 19 |  |  |  |  |  |
| CC(c1cc2c3c(c1)CCN3C(=O)CC2)(n1ccnc1)n1ccnc1 | 1.9 | 438 | 851 |  |  |  |  |  |
| COc1cccc(C(c2cc3c4c(c2)CCN4C(=O)CC3)n2ccnc2)c1 (configuration not stated) | 0.8 | 110 | 88 |  |  |  |  |  |
| O=C1CCc2cc(C(c3cccc(F)c3)n3ccnc3)cc3c2N1CC3 (configuration not stated) | 0.6 | 29 | 18 |  |  |  |  |  |
| COc1ccc(C(c2cc3c4c(c2)CCN4C(=O)CC3)n2ccnc2)cc1 (configuration not stated) | 2.6 | 40 | 104 | 43 | 1.1 | > 125 | > 5000 |  |
| CCC(c1cc2c3c(c1)CCN3C(=O)CC2)n1ccnc1 (configuration not stated) | 0.9 | 6.5 | 5.8 |  |  |  |  |  |
| C=C(c1cc2c3c(c1)CCN3C(=O)CC2)n1ccnc1 | 5.3 | 19 | 100 | 17 | 0.9 | > 260 | > 5000 |  |
| CC(c1cc2c3c(c1)CCN3C(=O)CC2)n1ccnc1 (configuration not stated) | 0.9 | 17 | 15 |  |  |  |  |  |
| O=C1CCc2cc(C(C3CC3)n3ccnc3)cc3c2N1CC3 (single isomer, unassigned; (-)) |  | 1.5 |  |  |  |  |  |  |
| O=C1CCc2cc(C(c3ccc(F)cc3)n3ccnc3)cc3c2N1CC3 (configuration not stated) | 1.1 | 27 | 29 |  |  |  |  |  |
| O=C1CCc2cc(C(C3CC3)n3ccnc3)cc3c2N1CC3 (racemic) |  | 2.2 | 24 | 228 |  |  | 2880 | 91 |
| O=C1CCc2cc(C(C3CC3)n3ccnc3)cc3c2N1CC3 (stereo in doubt; (+)-4) |  | 10.3 |  |  |  |  |  |  |
| O=C1CCc2cc(C(C3CCC3)n3ccnc3)cc3c2N1CC3 (configuration not stated) | 1.2 | 3.4 | 4.2 |  |  |  |  |  |
| N#Cc1ccc(C(c2cc3c4c(c2)CCN4C(=O)CC3)n2ccnc2)cc1 (configuration not stated) | 4.4 | 70 | 308 |  |  |  |  |  |
